In brackets after ≈: the same amount, converted by molar mass.
Target: Rat α-Glucosidase
Assay: Alpha-glucosidase inhibition assay (rat intestinal acetone powder, pNPG substrate)
Type: biochemical
Conditions: for IC50 / maximum inhibition: purified compounds and acarbose, Figure 2
Experimental: • - Enzyme solution preparation: Enzyme solution was then sonicated 24 times, each for 12 s at 4 °C, and then centrifuged for 20 min at 10,000× g, 4 °C. The residue part was re-suspended twice with 15 mL of the same buffer (0.1 mol/L NPB, pH 7), as described above. All supernatants were mixed together and dialyzed for a half day at 4–6 °C to obtain the enzyme solution, which was then used for further analyses. • - Reaction and estimation of inhibitory activity: The enzyme inhibition assay was done according to Kwon et al. 2006 [40] with slight modification. The enzyme solution (50 µL) and the sample solution (50 µL) were mixed in 150 μL of 0.1 mol/L NPB, pH 7. This mixture was pre-incubated at 37 °C for 15 min. The reaction was started by adding 50 μL of the substrate pNPG (10 mmol/L) into this mixture solution, and this duration was kept at 37 °C for 30 min, then 325 μL of 1 mol/L Na2CO3 solution were added to terminate the reaction. This absorption of the final solution was measured at 410 nm (namely, E) using a UV spectrometer (UV-2550, Shimadzu, Japan) to estimate the enzymatic activity, and the control experiment was also conducted similarly, but instead of the inhibitor solution, 50 μL 0.1 mol/L potassium phosphate buffer (pH 7) and the absorbance was measured at 410 nm (namely, C). The inhibitory effect (%) was calculated using the equation below:
α-Glucosidase inhibition (%) = (C − E)/C × 100, where E denoted the optical density of the solution reaction in the presence of both α-glucosidase and the sample, and C is the optical density of the reaction blank.

IC50 [µg/mL]	maximum inhibition	Inhibition of Rat α-Glucosidase % (MeOH extracts of medicinal plants and acarbose, Table 1) [%]	Inhibition of Rat α-Glucosidase IC50 (MeOH extracts of medicinal plants and acarbose, listed as Acarbose) [µg/mL]	Inhibition of Rat α-Glucosidase IC50 (MeOH extracts of medicinal plants and acarbose, listed as acarbose) [µg/mL]	Structure (SMILES)
191 (≈ 0.426 mM)	93%	–	–	–	C[C@@H]1O[C@@H](Oc2cc3c(=O)oc4c(O)c(O)cc5c(=O)oc(c2O)c3c45)[C@H](O)[C@H](O)[C@H]1O [EWC, eschweilenol C]
–	84–85%	–	–	–	Oc1cc(O)c2c(c1)O[C@H](c1ccc(O)c(O)c1)[C@H](O)C2 [ECC, (−)-epicatechin]
973 (≈ 5.72 mM)	80%	–	–	–	O=C(O)c1cc(O)c(O)c(O)c1 [GA, gallic acid]
–	84–85%	92	310	309	C[C@H]1O[C@H](O[C@H]2[C@H](O)[C@@H](O)[C@@H](O[C@H]3[C@H](O)[C@@H](O)C(O)O[C@@H]3CO)O[C@@H]2CO)[C@H](O)[C@@H](O)[C@@H]1N[C@H]1C=C(CO)[C@@H](O)[C@H](O)[C@H]1O (stereo partly drawn) [AC, acarbose, reference compound]

Reference: article PMC10223997, “Screening and Elucidation of Chemical Structures of Novel Mammalian α-Glucosidase Inhibitors Targeting Anti-Diabetes Drug from Herbals Used by E De Ethnic Tribe in Vietnam” (Pharmaceuticals, 2023)
